In paper PMC7118210 (Frontiers in Pharmacology, 2020):
Read-outs that look alike come from different tables or passages of the source.

How the values were obtained:
[1] = Single-dose pharmacokinetics in dogs (plasma, UHPLC/MS/MS); assay type: in vivo, Beagle dogs; conditions: for MRT last: read-out: MRT0-t; for MRT inf: read-out: MRT0-∞
Text: Sixty healthy adult Sprague Dawley rats (180-220 g, half male and female) were purchased from the Guangdong Medical Laboratory Animal Center (Guangzhou, Guangdong, China). Thirty Beagle dogs (10-14 kg, half male and female) were purchased from the […] Laboratory Animal Science & Technology Co., Ltd. (Gaoyao, Guangdong, China). All animals were housed under humanized conditions with free access to food and water, and acclimated to the living conditions for at least one week prior to experimentation at the Laboratory Animal Center of the School of Life Sciences, Sun Yat-sen University. Environmental conditions were maintained at 20°C-25°C, 55% ± 15% relative humidity, 12-h light/dark cycles, and 12 air changes per hour. Prior to experimentation, the animals were fasted overnight with water available ad libitum. All animals were healthy based on physical examination and laboratory analyses performed before and after the experiments. At the end of the experiments, the dogs were returned to the Laboratory Animal Center of School of Life Sciences, Sun Yat-sen University. […] All blood samples were transferred into heparin-treated centrifuge tubes and centrifuged for 10 min at 4,000 rpm and 4°C. All human urine samples were mixed and transferred (4 ml) into storage tubes. All biological samples were stored at -80°C. […] The optimal volume and activity in unit volume of enzyme solution [0.2 M acetic acid/water solution: 0.2 M ammonium acetate/water solution, 15:35 (v/v)] were determined through a pretest of the enzyme (rat plasma, 10 μl, 10 U μl^-1; dog plasma, 10 μl, 10 U μl^-1; human plasma, 20 μl, 20 U μl^-1; human urine, 10 μl, 10 U μl^-1). After enzyme incubation, 10 μl of IS solution was added to the plasma and urine samples (2 μg ml^-1 quercetin 3-β-D-glucoside for rat and dog plasma; 583 ng ml^-1 naringin-D4 and 160 ng ml^-1 naringenin-D4 for human plasma; and 9,710 ng ml^-1 naringin-D4 and 6,000 ng ml^-1 naringenin-D4 for human urine). To each fecal sample, 9-fold methanol-normal saline (2:1, v/v) was added, mixed (18,000 rpm, 15 min) by vortexing and centrifuged (10 min, 9,000 rpm, 4°C). Next, 10 μl IS solution (971 ng ml^-1 naringin-D4 and 600 ng ml^-1 naringenin-D4) was added to the supernatants of feces (200 μl) without enzyme incubation. […] The solid material was dissolved with acetonitrile-water (1:1, v/v) and injected into the ultra high-performance liquid chromatography coupled with triple quadrupole mass spectrometry (UHPLC/MS/MS) system as described below. The analysis of nonclinical and clinical samples was performed with a UHPLC/MS/MS system that consisted of a Shimadzu Nexera X2 ultra high-performance liquid chromatography (UHPLC) (Shimadzu Corp., Kyoto, Japan) coupled with an AB Sciex API4000 triple-quadrupole mass spectrometry (MS/MS) system (AB Sciex, Foster City, CA, USA) equipped with an electrospray ionization source and controlled by Analyst (v. 1.6.2) software. […] The injection volume was 10 μl with the flow rate of 0.3 ml min^-1 for plasma, and 0.4 ml min^-1 for urine and feces. The compounds were detected by multiple reaction monitoring in the negative ion electrospray mode. The electrospray source conditions were as follows: ion source gas1 30 psi, ion source gas2 60 psi, curtain gas 20 psi, collisionally activated dissociation (CAD) gas 8 psi, temperature 500°C, and ion spray voltage -4,500 V. Zero air was used for ion source gas1 and ion source gas2 and nitrogen for curtain gas and CAD gas. […] All pharmacokinetic and excretion parameters were expressed as mean ± standard deviation (SD). All mean and SD values were reported to three significant figures. The pharmacokinetic parameters were calculated using the Phoenix WinNonlin software (Version 6.4, Pharsight Corp., Cary, NC, USA) and compared using the Student's t-test (p < 0.05) in SPSS 18.0 (SPSS Inc., Chicago, IL, USA). […]

[2] = design: method as in Liu M. et al., 2012; conditions: dogs, ref Liu M. et al., 2012, cited from earlier work
[3] = both sexes, Beagle, dog, plasma, po, 3.1 mg/kg
[4] = both sexes, Beagle, dog, plasma, po, 12.4 mg/kg
[5] = both sexes, beagle, dog, plasma, iv, 12.4 mg/kg
[6] = both sexes, beagle, dog, plasma, po, 49.6 mg/kg
[7] = female, Beagle, dog, plasma, iv, 12.4 mg/kg
[8] = female, Beagle, dog, plasma, po, 3.1 mg/kg
[9] = female, Beagle, dog, plasma, po, 12.4 mg/kg
[10] = female, Beagle, dog, plasma, po, 49.6 mg/kg
[11] = male, Beagle, dog, plasma, iv, 12.4 mg/kg
[12] = male, Beagle, dog, plasma, po, 3.1 mg/kg
[13] = male, Beagle, dog, plasma, po, 12.4 mg/kg
[14] = male, Beagle, dog, plasma, po, 49.6 mg/kg
[15] = naringin 3.1 mg kg^-1 p.o. single dose, dog
[16] = naringin 12.4 mg kg^-1 p.o. single dose, dog
[17] = naringin 49.6 mg kg^-1 p.o. single dose, dog

O=C1C[C@@H](c2ccc(O)cc2)Oc2cc(O)cc(O)c21 [naringenin, Naringenin]
half-life ([1]; both sexes, Beagle, dog, plasma, oral, naringenin in dogs, studies overall): 2.03 ± 0.968 h
lag-time in plasma ([1]; dogs, after p.o. naringin): 1.83 ± 0.923 h
time for concentrations to increase to Cmax after the lag-time ([1]; dogs, after p.o. naringin): 4.17 ± 1.68 h
time within which excreted [2]: ≤ 24 h

C[C@@H]1O[C@@H](O[C@H]2[C@H](Oc3cc(O)c4c(c3)O[C@H](c3ccc(O)cc3)CC4=O)O[C@H](CO)[C@@H](O)[C@@H]2O)[C@H](O)[C@H](O)[C@H]1O [naringin, Naringin]
half-life ([1]; both sexes, Beagle, dog, plasma, po): 1.41 ± 0.671 h
AUC(0-inf) [1, 3]: 129 ± 78.2 ng·h/mL
AUC(0-t) [1, 3]: 108 ± 58.8 ng·h/mL
Cmax [1, 3]: 39.9 ± 10.4 ng/mL
Tmax [1, 3]: 1.33 ± 0.258 h
half-life [1, 3]: 1.84 ± 1.46 h
MRT last [1, 3]: 2.5 ± 1.05 h
MRT inf [1, 3]: 3.38 ± 1.88 h
AUC(0-inf) [1, 4]: 135 ± 35.5 ng·h/mL
AUC(0-t) [1, 4]: 124 ± 32.2 ng·h/mL
Cmax [1, 4]: 70.2 ± 16.9 ng/mL
Tmax [1, 4]: 1 ± 0.316 h
half-life [1, 4]: 1.31 ± 0.581 h
MRT last [1, 4]: 1.77 ± 0.371 h
MRT inf [1, 4]: 2.17 ± 0.633 h
Tmax ([1]; both sexes, Beagle, dog, plasma, po, dogs, nonclinical p.o. administration studies overall): 1.11 ± 0.344 h
AUC(0-inf) [1, 5]: 2930 ± 403 ng·h/mL
AUC(0-t) [1, 5]: 2920 ± 406 ng·h/mL
Cmax [1, 5]: 5800 ± 946 ng/mL
Tmax [1, 5]: 0.08 h
clearance [1, 5]: 71.8 mL/min/kg
half-life [1, 5]: 1.37 ± 0.347 h
MRT last [1, 5]: 0.703 ± 0.153 h
MRT inf [1, 5]: 0.727 ± 0.143 h
Vd ([1]; both sexes, beagle, dog, plasma, iv, 12.4 mg/kg, read-out: Vd): 8.69 ± 3.35 L/kg
AUC(0-inf) [1, 6]: 224 ± 104 ng·h/mL
AUC(0-t) [1, 6]: 211 ± 92.1 ng·h/mL
Cmax [1, 6]: 107 ± 78.2 ng/mL
Tmax [1, 6]: 1 ± 0.447 h
half-life [1, 6]: 1.31 ± 0.293 h
MRT last [1, 6]: 2.46 ± 1.11 h
MRT inf [1, 6]: 2.73 ± 1.02 h
AUC(0-inf) [1, 7]: 3200 ± 337 ng·h/mL
AUC(0-t) [1, 7]: 3190 ± 344 ng·h/mL
Cmax [1, 7]: 5860 ± 1070 ng/mL
Tmax [1, 7]: 0.08 h
half-life [1, 7]: 1.25 ± 0.317 h
AUC(0-inf) [1, 8]: 109 ± 67.7 ng·h/mL
AUC(0-t) [1, 8]: 88.5 ± 40 ng·h/mL
Cmax [1, 8]: 36.8 ± 12.6 ng/mL
Tmax [1, 8]: 1.17 ± 0.289 h
half-life [1, 8]: 1.26 ± 0.633 h
AUC(0-inf) [1, 9]: 132 ± 36.8 ng·h/mL
AUC(0-t) [1, 9]: 115 ± 27.9 ng·h/mL
Cmax [1, 9]: 60.2 ± 10.8 ng/mL
Tmax [1, 9]: 1 ± 0.1 h
half-life [1, 9]: 1.42 ± 0.782 h
AUC(0-inf) [1, 10]: 262 ± 144 ng·h/mL
AUC(0-t) [1, 10]: 240 ± 128 ng·h/mL
Cmax [1, 10]: 157 ± 87.5 ng/mL
Tmax [1, 10]: 1.17 ± 0.289 h
half-life [1, 10]: 1.13 ± 0.312 h
AUC(0-inf) [1, 11]: 2640 ± 255 ng·h/mL
AUC(0-t) [1, 11]: 2640 ± 256 ng·h/mL
Cmax [1, 11]: 5740 ± 1050 ng/mL
Tmax [1, 11]: 0.08 h
half-life [1, 11]: 1.48 ± 0.404 h
AUC(0-inf) [1, 12]: 149 ± 97.4 ng·h/mL
AUC(0-t) [1, 12]: 128 ± 76.6 ng·h/mL
Cmax [1, 12]: 42.9 ± 9.19 ng/mL
Tmax [1, 12]: 1.5 ± 0.231 h
half-life [1, 12]: 2.41 ± 1.98 h
AUC(0-inf) [1, 13]: 137 ± 42.3 ng·h/mL
AUC(0-t) [1, 13]: 132 ± 40 ng·h/mL
Cmax [1, 13]: 80.2 ± 17.2 ng/mL
Tmax [1, 13]: 1 ± 0.5 h
half-life [1, 13]: 1.2 ± 0.443 h
AUC(0-inf) [1, 14]: 185 ± 45.5 ng·h/mL
AUC(0-t) [1, 14]: 181 ± 46.7 ng·h/mL
Cmax [1, 14]: 56.6 ± 6.83 ng/mL
Tmax [1, 14]: 0.833 ± 0.577 h
half-life [1, 14]: 1.5 ± 0.117 h
CL [1, 15]: 520 ± 257 mL/min/kg
Vd [1, 15]: 61.2 ± 23.0 L/kg
CL [1, 16]: 1630 ± 453 mL/min/kg
Vd [1, 16]: 171 ± 59.4 L/kg
CL [1, 17]: 4450 ± 2120 mL/min/kg
Vd [1, 17]: 482 ± 173 L/kg
cumulative excretion percentage ([2]; in the forms of naringin, naringenin, and 4-hydroxyphenylpropionic acid): 60%
time within which excreted [2]: ≤ 24 h
